Results from patent US20240148679A1, “METHODS AND COMPOSITIONS RELATED TO TREATMENT AND PREVENTION OF CANCER BY INHIBITION OF DGAT1 AND DGAT2” (Ohio State Innovation Foundation, priority 2019, published 2024).

Tests used:
Type in all cases: cell-based, human
HepG2 cells [1] = assay: HepG2 cell death, trypan blue counting; settings: DGAT1 and DGAT2 inhibitors alone or in combination, 3 days
Experimental: (A) RT-qPCR analysis of DGAT1 vs. DGAT2 mRNA expression in GBM cells (U251 and GBM30) and in liver cancer cell line (HepG2). The results are shown as mean±SD (n=3). Statistical significance was determined by a paired Student's t-test. *P<0.01; n.s., not significant. (B) Representative fluorescence imaging of LDs stained with BODIPY 493/503 (green) (upper panels) and TLC analysis of TG levels (lower panels) in GBM and liver cancer cells after treatments with the DGAT1 inhibitor A-922500 (20 μg/ml) or DGAT2 inhibitor PF-06424439 ([…]) alone or in combination for 24 hr. Nuclei were stained with Hoechst 33342 (blue). Scale bar, 10 m. LDs were quantified by the ImageJ software in more than 30 cells in each treatment group (mean±SEM). TG levels were quantified by the ImageJ software and normalized to the untreated control group (mean±SD, n=3). Statistical significance was determined by one-way ANOVA. * P<0.001; #P<0.05. (C) Percentage of dead GBM or liver cancer cells after treatment with DGAT1 or DGAT2 inhibitors alone or in combination for 3 days as in panel B. Live and dead cells were counted after trypan blue staining (mean SD, n=3). Statistical significance was determined by one-way ANOVA. * P<0.0001. […] Statistical significance was determined by one-way ANOVA. * P<0.01. […] Cell death percentage and significance were determined as in panel c (mean±SD, n=3). *P<0.0001; #P<0.001. […]

HepG2 cells [2] = assay: Lipid droplet and TG levels in liver cancer cell line HepG2
Experimental: (A) RT-qPCR analysis of DGAT1 vs. DGAT2 mRNA expression in GBM cells (U251 and GBM30) and in liver cancer cell line (HepG2). The results are shown as mean±SD (n=3). Statistical significance was determined by a paired Student's t-test. *P<0.01; n.s., not significant. (B) Representative fluorescence imaging of LDs stained with BODIPY 493/503 (green) (upper panels) and TLC analysis of TG levels (lower panels) in GBM and liver cancer cells after treatments with the DGAT1 inhibitor A-922500 (20 μg/ml) or DGAT2 inhibitor PF-06424439 ([…]) alone or in combination for 24 hr. Nuclei were stained with Hoechst 33342 (blue). Scale bar, 10 m. LDs were quantified by the ImageJ software in more than 30 cells in each treatment group (mean±SEM). TG levels were quantified by the ImageJ software and normalized to the untreated control group (mean±SD, n=3). Statistical significance was determined by one-way ANOVA. * P<0.001; #P<0.05. (C) Percentage of dead GBM or liver cancer cells after treatment with DGAT1 or DGAT2 inhibitors alone or in combination for 3 days as in panel B. Live and dead cells were counted after trypan blue staining (mean SD, n=3). Statistical significance was determined by one-way ANOVA. * P<0.0001. (D) Western blot analysis of DGAT1 expression in membrane extracts from GBM and liver cancer cells after infection with shRNA-expressing lentivirus against DGAT1 for 48 hr. PDIA1, an ER protein marker, was used as an internal control. (E) RT-qPCR analysis of DGAT2 mRNA expression in GBM and liver cancer cells after infection with shRNA-expressing lentivirus against DGAT2 for 48 hr. The expression level was normalized to control cells and shown as mean±SD (n=3). Statistical significance was determined by one-way ANOVA. * P<0.01. (F) Representative fluorescence images of LDs stained with BODIPY 493/503 (upper panels) and TLC analysis of TG levels (lower panels) in GBM and liver cancer cells after lentivirus-mediated shRNA knockdown of DGAT1 or DGAT2 alone or in combination for 48 hr. Scale bar, 10 m. Quantification and significance analysis of LDs and TG levels in different groups were the same as in panel B. * P<0.001; #P<0.05. (G) Percentage of dead GBM or liver cancer cells after lentivirus-mediated shRNA knockdown of DGAT1 or DGAT2 alone or in combination for 4 days. Cell death percentage and significance were determined as in panel c (mean±SD, n=3). *P<0.0001; #P<0.001. […]
For live cells, lipid droplets were stained with BODIPY 493/503 ([…]) (Cat #D-3922; Life Technologies) for 30 min and visualized by confocal microscopy (Carl Zeiss LSM510 Meta, 63×/1.4 NA oil). More than 30 cells were analyzed and LD numbers were quantified with the Image J software (NIH) in a 3D stack, as previously described in Geng 2016. […]

GBM cells = assay: Lipid droplet (BODIPY 493/503) number and TG (TLC) levels in GBM cells; settings: 24 hours; for LDs/TG levels: concurrently inhibiting DGAT1 and DGAT2 (A-922500 + PF-06424439), vs DGAT1 inhibition alone; for number of LDs and levels of TG: single inhibitor, 20 μg/ml, all examined GBM cells
Experimental: (A) RT-qPCR analysis of DGAT1 vs. DGAT2 mRNA expression in GBM cells (U251 and GBM30) and in liver cancer cell line (HepG2). The results are shown as mean±SD (n=3). Statistical significance was determined by a paired Student's t-test. *P<0.01; n.s., not significant. (B) Representative fluorescence imaging of LDs stained with BODIPY 493/503 (green) (upper panels) and TLC analysis of TG levels (lower panels) in GBM and liver cancer cells after treatments with the DGAT1 inhibitor A-922500 (20 μg/ml) or DGAT2 inhibitor PF-06424439 ([…]) alone or in combination for 24 hr. Nuclei were stained with Hoechst 33342 (blue). Scale bar, 10 m. LDs were quantified by the ImageJ software in more than 30 cells in each treatment group (mean±SEM). TG levels were quantified by the ImageJ software and normalized to the untreated control group (mean±SD, n=3). Statistical significance was determined by one-way ANOVA. * P<0.001; #P<0.05. (C) Percentage of dead GBM or liver cancer cells after treatment with DGAT1 or DGAT2 inhibitors alone or in combination for 3 days as in panel B. Live and dead cells were counted after trypan blue staining (mean SD, n=3). Statistical significance was determined by one-way ANOVA. * P<0.0001. (D) Western blot analysis of DGAT1 expression in membrane extracts from GBM and liver cancer cells after infection with shRNA-expressing lentivirus against DGAT1 for 48 hr. […] Statistical significance was determined by one-way ANOVA. * P<0.01. (F) Representative fluorescence images of LDs stained with BODIPY 493/503 (upper panels) and TLC analysis of TG levels (lower panels) in GBM and liver cancer cells after lentivirus-mediated shRNA knockdown of DGAT1 or DGAT2 alone or in combination for 48 hr. […] Quantification and significance analysis of LDs and TG levels in different groups were the same as in panel B. * P<0.001; #P<0.05. […] Cell death percentage and significance were determined as in panel c (mean±SD, n=3). *P<0.0001; #P<0.001.
(A) RT-qPCR analysis of DGAT1 vs. DGAT2 mRNA levels in different types of cancer cell lines using 3 pairs of different primers. […] Statistical significance was determined by Student's t-test. *P<0.01. (B) Representative fluorescence imaging of LDs stained with BODIPY 493/503 (green) (upper panels) and TLC analysis of TG levels (lower panels) in GBM cells after treatment with the DGAT1 inhibitor A-922500 (20 μg/ml) or DGAT2 inhibitor PF-06424439 (20 μg/ml) for 24 hr. […] LDs were quantified by the ImageJ software in more than 30 cells in each treatment group (mean±SEM). TG levels were quantified by the ImageJ software and normalized to control group (mean±SD, n=3). Statistical significance was determined by one-way ANOVA. *P<0.001; #P<0.05. […] Statistical significance was determined by one-way ANOVA. *P<0.001. […]

[3] = inhibition of both enzymes (A-922500 + PF-06424439)
[4] = single inhibitor, 20 μg/ml, 24 hr

| SMILES | cell death of HepG2 cells (HepG2 cells [1]) | LDs/TG levels (HepG2 cells [2]; [3]) | LDs/TG levels (HepG2 cells [2]; [4]) | LDs/TG levels (GBM cells) | number of LDs and levels of TG (GBM cells) |
| --- | --- | --- | --- | --- | --- |
| O=C(Nc1ccccc1)Nc1ccc(-c2ccc(C(=O)[C@@H]3CCC[C@H]3C(=O)O)cc2)cc1 [A-922500] | inhibition of both enzymes was required for cell death | strongly reduce | only slightly decreased | did not result in further reduction | dramatically reduced the number of LDs |
| CS(=O)(=O)O.O=C([C@@H]1CCCN(c2ccc3[nH]c(C4(n5cc(Cl)cn5)CC4)nc3n2)C1)N1CCCC1 [PF-06424439] | inhibition of both enzymes was required for cell death | strongly reduce | only slightly decreased | did not result in further reduction | minor reduction |
